Source: patent publication US11414416B1, “Compounds and uses thereof” (Foghorn Therapeutics Inc., priority 2019, dated 2022)

Assays:
BRD9 bromodomain = BRD9 bromodomain (Homo sapiens (Human), UniProt Q9H8M2); assay: BRD9 bromodomain TR-FRET competition binding assay; conditions: Table 4; competition with biotinylated ligand, 3 nM Flag-BRD9, 90 minutes
Procedure: Procedure: His-Flag-BRD9 (P133-K239; Swiss Prot Q9H8M2; SEQ ID NO:1 mgsshhhhhhenlyfq/gdykddddkgslevlfqg/[…] […]) was cloned, expressed, purified, and then treated with TEV protease. Cleaved His tag was removed by purification. The binding of a biotinylated small molecule ligand of BRD9 was assessed via the LANCE® TR-FRET platform (PerkinElmer), and the compounds were assayed for inhibitory activity against this interaction.
A mixture of biotinylated-ligand and SureLight™ Allophycocyanin-Streptavidin (APC-SA, PerkinElmer AD0201) in 50 mM HEPES (pH 7.4), 50 mM NaCl, 1 mM TCEP (pH 7), 0.01% (v/v) Tween-20, 0.01% (w/v) bovine serum albumin was added to a white 384-well PerkinElmer Proxiplate Plus plate. DMSO or 3-fold serially diluted compounds were then added to the Proxiplate followed by addition of Flag-BRD9. After a 10-minute incubation at room temperature, Eu-W1024 anti-FLAG (PerkinElmer, AD0273) was added. The final reaction mixture that contained 3.75 nM biotinylated ligand, 3 nM Flag-BRD9, 7.5 nM SureLight™ Allophycocyanin-Streptavidin, and 0.2 nM Eu-W1024 anti-FLAG was incubated at room temperature for 90 minutes.
Results: The plates were then read on a PerkinElmer Envision plate reader to determine the ratio of emission at 665 nm over 615 nm. […]

[1] = molecular target: Nanoluciferase-BRD9 fusion protein (Homo sapiens (Human), UniProt Q9H8M2); assay: SYO1 BRD9 NanoLuc degradation assay; assay type: cell-based; conditions: Table 5A, SYO-1 cells expressing 3×FLAG-NLuc-BRD9, 6 hours; for DC50: read-out: SYO1 BRD9-NanoLuc degradation IC50
Chain of Nanoluciferase-BRD9 fusion protein (Q9H8M2 whole entry, the tested form may be a part): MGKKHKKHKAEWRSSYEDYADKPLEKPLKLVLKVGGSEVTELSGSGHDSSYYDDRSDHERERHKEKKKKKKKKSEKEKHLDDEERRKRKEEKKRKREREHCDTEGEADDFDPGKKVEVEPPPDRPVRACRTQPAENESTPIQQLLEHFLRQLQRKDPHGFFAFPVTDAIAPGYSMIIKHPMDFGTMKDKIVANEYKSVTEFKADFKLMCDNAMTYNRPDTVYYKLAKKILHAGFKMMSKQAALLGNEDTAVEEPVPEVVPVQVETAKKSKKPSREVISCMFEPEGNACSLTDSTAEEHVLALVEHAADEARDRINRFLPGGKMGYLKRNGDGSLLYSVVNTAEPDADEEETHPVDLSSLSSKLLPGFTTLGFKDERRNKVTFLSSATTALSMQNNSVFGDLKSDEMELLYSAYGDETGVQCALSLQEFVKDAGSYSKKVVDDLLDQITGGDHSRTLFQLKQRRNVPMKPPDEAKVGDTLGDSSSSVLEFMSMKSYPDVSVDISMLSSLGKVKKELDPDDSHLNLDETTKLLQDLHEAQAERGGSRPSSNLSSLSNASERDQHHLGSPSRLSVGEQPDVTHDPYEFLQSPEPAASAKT
How it was run: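 Degradation was read as loss of nanoluciferase signal (Nano-Glo) after 6 h compound exposure in a stable SYO-1 line carrying 3×FLAG-NLuc-BRD9 (8000 cells/well). Normalised between DMSO (high) and a 1 μM known BRD9 degrader (low).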

Chain of BRD9 bromodomain (Q9H8M2 133-239): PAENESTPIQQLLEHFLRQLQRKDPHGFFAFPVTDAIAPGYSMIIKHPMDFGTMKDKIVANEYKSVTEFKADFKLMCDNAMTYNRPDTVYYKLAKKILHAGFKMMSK

Compound	IC50 (BRD9 bromodomain)	IC50 [1]	DC50 [1]
COc1cc(-c2cn(C)c(=O)c3cnccc23)cc(OC)c1CN1CC[C@H]1C(=O)NCCN(C)CCNC(=O)COc1ccc2c(c1)C(=O)N(C1CCC(=O)NC1=O)C2=O (stereo partly drawn) [Compound D26, N-[2-[(2-[[(2S)-1-[[2,6-dimethoxy-4-(2-methyl-1-oxo-1,2-dihydro-2,7-naphthyridin-4-yl)phenyl]methyl]azetidin-2-yl]formamido]ethyl)(methyl)amino]ethyl]-2-[[2-(2,6-dioxopiperidin-3-yl)-1,3-dioxo-2,3-dihydro-1H-isoindol-5-yl]oxy]acetamide]	10 to 100 nM	> 1000 nM	–
COc1cc(-c2cn(C)c(=O)c3cnccc23)cc(OC)c1CN1CC[C@H]1CN(C)Cc1cccc2c1C(=O)N(C1CCC(=O)NC1=O)C2=O (stereo partly drawn) [Compound D27, 4-(((((S)-1-(2,6-dimethoxy-4-(2-methyl-1-oxo-1,2-dihydro-2,7-naphthyridin-4-yl)benzyl)azetidin-2-yl)methyl)(methyl)amino)methyl)-2-(2,6-dioxopiperidin-3-yl)isoindoline-1,3-dione]	< 10 nM	–	10 to 100 nM
COc1cc(-c2cn(C)c(=O)c3cnccc23)cc(OC)c1CNCCCN1CC(Oc2ccc3c(c2)C(=O)N(C2CCC(=O)NC2=O)C3=O)C1 (stereo not drawn) [Compound D31, 5-((1-(3-((2,6-dimethoxy-4-(2-methyl-1-oxo-1,2-dihydro-2,7-naphthyridin-4-yl)benzyl)amino)propyl)azetidin-3-yl)oxy)-2-(2,6-dioxopiperidin-3-yl)isoindoline-1,3-dione formic acid]	< 10 nM	–	10 to 100 nM
COc1cc(-c2cn(C)c(=O)c3cnccc23)cc(OC)c1CN1CC2(C1)CN(C(=O)CCCOc1cccc3c1C(=O)N(C1CCC(=O)NC1=O)C3=O)C2 (stereo not drawn) [Compound D32, 4-(4-(6-(2,6-dimethoxy-4-(2-methyl-1-oxo-1,2-dihydro-2,7-naphthyridin-4-yl)benzyl)-2,6-diazaspiro[3.3]heptan-2-yl)-4-oxobutoxy)-2-(2,6-dioxopiperidin-3-yl)isoindoline-1,3-dione]	< 10 nM	–	10 to 100 nM
COc1cc(-c2cn(C)c(=O)c3cnccc23)cc(OC)c1CN1CCN(C(=O)CCCOc2cccc3c2C(=O)N(C2CCC(=O)NC2=O)C3=O)CC1 (stereo not drawn) [Compound D33, 4-(4-(4-(2,6-dimethoxy-4-(2-methyl-1-oxo-1,2-dihydro-2,7-naphthyridin-4-yl)benzyl)piperazin-1-yl)-4-oxobutoxy)-2-(2,6-dioxopiperidin-3-yl)isoindoline-1,3-dione]	< 10 nM	< 10 nM	–
COc1cc(-c2cn(C)c(=O)c3cnccc23)cc(OC)c1CN1CC2(C1)CN(C(=O)CCCCOc1cccc3c1C(=O)N(C1CCC(=O)NC1=O)C3=O)C2 (stereo not drawn) [Compound D34, 4-((5-(6-(2,6-dimethoxy-4-(2-methyl-1-oxo-1,2-dihydro-2,7-naphthyridin-4-yl)benzyl)-2,6-diazaspiro[3.3]heptan-2-yl)-5-oxopentyl)oxy)-2-(2,6-dioxopiperidin-3-yl)isoindoline-1,3-dione]	< 10 nM	< 10 nM	–
COc1cc(-c2cn(C)c(=O)c3cnccc23)cc(OC)c1CN1CC2(C1)CN(C(=O)COc1cccc3c1C(=O)N(C1CCC(=O)NC1=O)C3=O)C2 (stereo not drawn) [Compound D36, 4-(2-(6-(2,6-dimethoxy-4-(2-methyl-1-oxo-1,2-dihydro-2,7-naphthyridin-4-yl)benzyl)-2,6-diazaspiro[3.3]heptan-2-yl)-2-oxoethoxy)-2-(2,6-dioxopiperidin-3-yl)isoindoline-1,3-dione]	< 10 nM	–	100 to 1000 nM
COc1cc(-c2cn(C)c(=O)c3cnccc23)cc(OC)c1CN1CCN(C(=O)COc2cccc3c2C(=O)N(C2CCC(=O)NC2=O)C3=O)CC1 (stereo not drawn) [Compound D37, 4-(2-(4-(2,6-dimethoxy-4-(2-methyl-1-oxo-1,2-dihydro-2,7-naphthyridin-4-yl)benzyl)piperazin-1-yl)-2-oxoethoxy)-2-(2,6-dioxopiperidin-3-yl)isoindoline-1,3-dione formic acid]	< 10 nM	< 10 nM	–

Other lines, results leading:

IC50 (BRD9 bromodomain)	IC50 [1]	DC50 [1]	Compound
10 to 100 nM	< 10 nM	–	COc1cc(-c2cn(C)c(=O)c3cnccc23)cc(OC)c1CN1CC[C@@H]1C(=O)NCCCCCCCCNc1cccc2c1C(=O)N(C1CCC(=O)NC1=O)C2=O (stereo partly drawn) [Compound D10]
10 to 100 nM	< 10 nM	–	COc1cc(-c2cn(C)c(=O)c3cnccc23)cc(OC)c1CN1CC[C@H]1C(=O)NCCCCCCCCNc1cccc2c1C(=O)N(C1CCC(=O)NC1=O)C2=O (stereo partly drawn) [Compound D11, (2S)-1-[[2,6-dimethoxy-4-(2-methyl-1-oxo-2,7-naphthyridin-4-yl)phenyl]methyl]-N-(8-[[2-(2,6-dioxopiperidin-3-yl)-1,3-dioxoisoindol-4-yl]amino]octyl)azetidine-2-carboxamide]
< 10 nM	< 10 nM	–	COc1cc(-c2cn(C)c(=O)c3cnccc23)cc(OC)c1CN1CC(S(=O)(=O)NCCCCCCCCNc2cccc3c2C(=O)N(C2CCC(=O)NC2=O)C3=O)C1 (stereo not drawn) [Compound D12, 1-[[2,6-dimethoxy-4-(2-methyl-1-oxo-1,2-dihydro-2,7-naphthyridin-4-yl)phenyl]methyl]-N-(8-[[2-(2,6-dioxopiperidin-3-yl)-1,3-dioxo-2,3-dihydro-1H-isoindol-4-yl]amino]octyl)azetidine-3-sulfonamide]
< 10 nM	–	< 10 nM	COc1cc(-c2cn(C)c(=O)c3cnccc23)cc(OC)c1CN1CC(C)(C(=O)NCCCCCCCCNc2cccc3c2C(=O)N(C2CCC(=O)NC2=O)C3=O)C1 (stereo not drawn) [Compound D13, 1-(2,6-dimethoxy-4-(2-methyl-1-oxo-1,2-dihydro-2,7-naphthyridin-4-yl)benzyl)-N-(8-((2-(2,6-dioxopiperidin-3-yl)-1,3-dioxoisoindolin-4-yl)amino)octyl)-3-methylazetidine-3-carboxamide]
< 10 nM	< 10 nM	–	COc1cc(-c2cn(C)c(=O)c3cnccc23)cc(OC)c1CN1CC(C(=O)N(C)CCCCCCCCNc2cccc3c2C(=O)N(C2CCC(=O)NC2=O)C3=O)C1 (stereo not drawn) [Compound D14, 1-[[2,6-dimethoxy-4-(2-methyl-1-oxo-1,2-dihydro-2,7-naphthyridin-4-yl)phenyl]methyl]-N-(8-[[2-(2,6-dioxopiperidin-3-yl)-1,3-dioxo-2,3-dihydro-1H-isoindol-4-yl]amino]octyl)-N-methylazetidine-3-carboxamide]
< 10 nM	< 10 nM	–	COc1cc(-c2cn(C)c(=O)c3cnccc23)cc(OC)c1CN1CC(C(=O)N(C)CCCCCNc2cccc3c2C(=O)N(C2CCC(=O)NC2=O)C3=O)C1 (stereo not drawn) [Compound D15, 1-[[2,6-dimethoxy-4-(2-methyl-1-oxo-1,2-dihydro-2,7-naphthyridin-4-yl)phenyl]methyl]-N-(5-[[2-(2,6-dioxopiperidin-3-yl)-1,3-dioxo-2,3-dihydro-1H-isoindol-4-yl]amino]pentyl)-N-methylazetidine-3-carboxamide formic acid]
< 10 nM	< 10 nM	–	COc1cc(-c2cn(C)c(=O)c3cnccc23)cc(OC)c1CN1CC(S(=O)(=O)NCCCCCNc2ccc3c(c2)C(=O)N(C2CCC(=O)NC2=O)C3=O)C1 (stereo not drawn) [Compound D23, 1-[[2,6-dimethoxy-4-(2-methyl-1-oxo-1,2-dihydro-2,7-naphthyridin-4-yl)phenyl]methyl]-N-(5-[[2-(2,6-dioxopiperidin-3-yl)-1,3-dioxo-2,3-dihydro-1H-isoindol-5-yl]amino]pentyl) azetidine-3-sulfonamide formic acid]
< 10 nM	–	100 to 1000 nM	COc1cc(-c2cn(C)c(=O)c3cnccc23)cc(OC)c1CN1CC[C@H]1C(=O)NCCN(C)CCNc1cccc2c1C(=O)N(C1CCC(=O)NC1=O)C2=O (stereo partly drawn) [Compound D25, (2S)-1-[[2,6-dimethoxy-4-(2-methyl-1-oxo-1,2-dihydro-2,7-naphthyridin-4-yl)phenyl]methyl]-N-[2-[(2-[[2-(2,6-dioxopiperidin-3-yl)-1,3-dioxo-2,3-dihydro-1H-isoindol-4-yl]amino]ethyl)(methyl)amino]ethyl]azetidine-2-carboxamide]
< 10 nM	–	10 to 100 nM	COc1cc(-c2cn(C)c(=O)c3cnccc23)cc(OC)c1CN1CC(C(=O)NCCS(=O)(=O)CCNc2cccc3c2C(=O)N(C2CCC(=O)NC2=O)C3=O)C1 (stereo not drawn) [Compound D30, 1-(2,6-dimethoxy-4-(2-methyl-1-oxo-1,2-dihydro-2,7-naphthyridin-4-yl)benzyl)-N-(2-((2-((2-(2,6-dioxopiperidin-3-yl)-1,3-dioxoisoindolin-4-yl)amino)ethyl)sulfonyl)ethyl)azetidine-3-carboxamide]
< 10 nM	< 10 nM	–	COc1cc(-c2cn(C)c(=O)c3cnccc23)cc(OC)c1CN1CC(S(=O)(=O)NCCOCCOCCNc2cccc3c2C(=O)N(C2CCC(=O)NC2=O)C3=O)C1 (stereo not drawn) [Compound D38, 1-[[2,6-dimethoxy-4-(2-methyl-1-oxo-2,7-naphthyridin-4-yl)phenyl]methyl]-N-[2-[2-(2-[[2-(2,6-dioxopiperidin-3-yl)-1,3-dioxoisoindol-4-yl]amino]ethoxy)ethoxy]ethyl]azetidine-3-sulfonamide formic acid]
